Data from patent US8106055B2, “Substituted amide compounds” (Gruenenthal GmbH, priority 2007, dated 2012).

Tests used:
human μ opiate receptor = target: T1, human μ opiate receptor (Homo sapiens, UniProt P35372); assay: Affinity for the human μ opiate receptor ([3H]-naloxone displacement, CHO-K1 receptor membrane preparation, SPA); format: binding; conditions: 1.5 h, Table 3, to be read in the same way as Table 1; test concentration 1 μM; read-out: μ
T1 construct: purchased PerkinElmer Life Sciences, Zaventem, Belgium RB-HOM; host or cells: CHO-K1 cells (membrane preparation)
T1 sequence (P35372 whole entry): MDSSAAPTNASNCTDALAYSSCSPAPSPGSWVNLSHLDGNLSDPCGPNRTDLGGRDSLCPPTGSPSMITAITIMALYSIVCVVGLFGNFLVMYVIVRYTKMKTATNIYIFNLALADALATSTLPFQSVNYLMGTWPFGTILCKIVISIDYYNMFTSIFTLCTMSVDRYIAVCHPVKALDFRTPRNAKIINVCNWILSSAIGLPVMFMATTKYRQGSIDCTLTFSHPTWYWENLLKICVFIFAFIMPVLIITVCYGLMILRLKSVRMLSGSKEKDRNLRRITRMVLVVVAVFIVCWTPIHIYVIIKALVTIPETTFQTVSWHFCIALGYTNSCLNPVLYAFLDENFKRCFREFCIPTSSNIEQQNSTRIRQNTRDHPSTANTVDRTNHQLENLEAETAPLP
Experimental: Binding data of the compounds on the μ opioid receptor and data on the inhibition of reuptake of serotonin (5-HT) are given in Table 1. The data for the μ receptor were measured at a test concentration of 1 μM, and those for the serotonin reuptake at 10 μM. The values are stated in % inhibition.
Investigation of the Activity of the Compounds of the Invention Method for Determining the Affinity for the Human μ Opiate Receptor
The receptor affinity for the human p opiate receptor is determined in a homogeneous set-up in microtitre plates. For this, dilution series of the substances to be tested are incubated with a receptor membrane preparation (15-40 μg of protein/250 μl of incubation batch) of CHO-K1 cells which express the human p opiate receptor (RB-HOM receptor membrane preparation from PerkinElmer Life Sciences, Zaventem, Belgium) in the presence of 1 nmol/l of the radioactive ligand [^3H]-naloxone (NET719, PerkinElmer Life Sciences, Zaventem, Belgium) and 1 mg of WGA-SPA-Beads (wheat germ agglutinin SPA beads from Amersham/Pharmacia, Freiburg, Germany) in a total volume of 250 μl for 90 minutes at room temperature. 50 mmol/l of Tris-HCl supplemented with 0.06% of bovine serum albumin is used as the incubation buffer. 100 μmol/l of naloxone are additionally added for determination of the non-specific binding. After the end of the ninety-minute incubation time, the microtitre plates are centrifuged for 20 minutes at 1,000 g and the radioactivity is measured in a β-counter (Microbeta-Trilux, PerkinElmer Wallac, Freiburg, Germany). The percentage displacement of the radioactive ligand from its binding to the human p opiate receptor is determined at a concentration of the test substances of 1 μmol/l and stated as the percentage inhibition of the specific binding. Starting from the percentage displacement by various concentrations of the test substances, IC50 inhibitory concentrations which cause a 50 percent displacement of the radioactive ligand are calculated. By conversion by means of the Cheng-Prusoff relationship, Ki values for the test substances are obtained.

[1] = target: T2, bradykinin 1 receptor (B1R) of the rat (Rattus norvegicus, UniProt P97583); assay: Functional investigation on the rat bradykinin 1 receptor (B1R), Ca2+ FLIPR assay in CHO K1 rB1R cells; format: cell-based; conditions: test substance 10 μM, Ca2+ FLIPR, CHO K1 rB1R cells; for inhibition at 10 µM: CHO-K1, B1R antagonism rat, read-out: B1R Ant. r [10 μM] % Inhibition
T2 construct: expressed in transfected cells; host or cells: CHO K1 cells
T2 sequence (P97583 1-337): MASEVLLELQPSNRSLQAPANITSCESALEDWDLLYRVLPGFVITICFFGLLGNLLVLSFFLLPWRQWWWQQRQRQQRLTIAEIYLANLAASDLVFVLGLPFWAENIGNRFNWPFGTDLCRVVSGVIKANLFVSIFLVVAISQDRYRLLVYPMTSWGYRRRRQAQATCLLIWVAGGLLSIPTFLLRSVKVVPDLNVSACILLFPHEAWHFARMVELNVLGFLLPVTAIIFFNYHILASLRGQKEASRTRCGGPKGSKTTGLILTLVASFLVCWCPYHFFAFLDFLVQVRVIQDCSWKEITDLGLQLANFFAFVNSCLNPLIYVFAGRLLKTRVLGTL
Outline: (§1)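 Cells were dye-loaded with Fluo-4 plus probenecid, then test substances added and Ca2+ influx compared with agonist control for % activation. After 10-20 min, EC80 agonist (Lys-Des-Arg9-bradykinin human; Des-Arg9-bradykinin rat) was applied; suppression gave % inhibition and IC50 values.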

[2] = target: T3, human bradykinin 1 receptor (B1R) (Homo sapiens, UniProt P46663); assay: Functional investigation on the human bradykinin 1 receptor (B1R), Ca2+ FLIPR assay in CHO K1 hB1R cells; format: cell-based; conditions: test substance 10 μM, Ca2+ FLIPR, CHO K1 hB1R cells; for inhibition at 10 µM: CHO-K1, B1R antagonism human, read-out: B1R Ant. h [10 μM] % Inhibition
T3 construct: expressed in transfected cells; host or cells: CHO K1 cells
T3 sequence (P46663 1-353): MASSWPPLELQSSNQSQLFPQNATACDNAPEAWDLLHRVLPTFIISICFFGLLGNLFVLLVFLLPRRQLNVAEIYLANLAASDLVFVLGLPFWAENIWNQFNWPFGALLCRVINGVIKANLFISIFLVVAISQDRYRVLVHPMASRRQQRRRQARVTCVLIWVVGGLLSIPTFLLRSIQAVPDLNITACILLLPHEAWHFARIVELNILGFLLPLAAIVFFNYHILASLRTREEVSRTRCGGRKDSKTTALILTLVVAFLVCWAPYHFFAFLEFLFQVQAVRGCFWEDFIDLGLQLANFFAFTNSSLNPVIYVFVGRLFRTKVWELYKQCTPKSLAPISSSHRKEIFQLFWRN
Outline: as §1

Row | Compound | inhibition at 1 µM (human μ opiate receptor) | B1R Ant. r [10 μM] % Inhibition ([1]; B1R antagonism rat) | B1R Ant. h [10 μM] % Inhibition ([2]; B1R antagonism human) | inhibition at 10 µM [1] | inhibition at 10 µM [2]
1 | CN(CCOCC(=O)NC1CCC(C(c2ccccc2)N2CCCC2)CC1)S(=O)(=O)c1c(Cl)cc(Cl)cc1Cl (stereo not drawn) [Example 625, N-(4-(phenyl(pyrrolidin-1-yl)methyl)cyclohexyl)-2-(2-(2,4,6-trichloro-N-methylphenylsulfonamido)ethoxy)acetamide] | 72% | 57% | 100% |  | 
2 | CN(CCOCC(=O)NCC1CCC(C(c2ccccc2)N2CCCC2)CC1)S(=O)(=O)c1c(Cl)cc(Cl)cc1Cl (stereo not drawn) [Example 626, N-((4-(phenyl(pyrrolidin-1-yl)methyl)cyclohexyl)methyl)-2-(2-(2,4,6-trichloro-N-methylphenylsulfonamido)ethoxy)acetamide] | 71% |  |  | 47% | 105%
3 | CN(CCOCC(=O)NC1CCC(C(c2ccccc2)N2CCCC2)CC1)S(=O)(=O)c1ccc(Cl)cc1Cl (stereo not drawn) [Example 627, 2-(2-(2,4-dichloro-N-methylphenylsulfonamido)ethoxy)-N-(4-(phenyl(pyrrolidin-1-yl)methyl)cyclohexyl)acetamide] | 69% |  |  | 35% | 75%
4 | COc1cc(C)c(S(=O)(=O)N(C)CCOCC(=O)NC2CCC(C(c3ccccc3)N3CCCC3)CC2)c(C)c1 (stereo not drawn) [Example 628, 2-(2-(4-methoxy-N,2,6-trimethylphenylsulfonamido)ethoxy)-N-(4-(phenyl(pyrrolidin-1-yl)methyl)cyclohexyl)acetamide] | 36% |  |  | 89% | 105%
5 | COc1cc(C)c(S(=O)(=O)N2CCC(OCC(=O)NC3CCC(C(c4ccccc4)N4CCCC4)CC3)C2)c(C)c1 (stereo not drawn) [Example 629, 2-(1-(4-methoxy-2,6-dimethylphenylsulfonyl)pyrrolidin-3-yloxy)-N-(4-(phenyl(pyrrolidin-1-yl)methyl)cyclohexyl)acetamide] | 37% |  |  | 67% | 96%
6 | CN(CCOCC(=O)NC1CCC(C(c2ccccc2)N2CCCC2)CC1)S(=O)(=O)c1c(Cl)cc(C(F)(F)F)cc1Cl (stereo not drawn) [Example 630, 2-(2-(2,6-dichloro-N-methyl-4-(trifluoromethyl)phenylsulfonamido)ethoxy)-N-(4-(phenyl(pyrrolidin-1-yl)methyl)cyclohexyl)acetamide] | 72% |  |  | -11% | 50%
7 | O=C(COC1CCCN(S(=O)(=O)c2c(Cl)cc(Cl)cc2Cl)C1)NC1CCC(C(c2ccccc2)N2CCCC2)CC1 (stereo not drawn) [Example 631, N-(4-(phenyl(pyrrolidin-1-yl)methyl)cyclohexyl)-2-(1-(2,4,6-trichlorophenylsulfonyl)piperidin-3-yloxy)acetamide] | 88% |  |  | 87% | 92%
8 | COc1cc(C)c(S(=O)(=O)N2CCCC2COCC(=O)NC2CCC(C(c3ccccc3)N3CCCC3)CC2)c(C)c1 (stereo not drawn) [Example 632, 2-((1-(4-methoxy-2,6-dimethylphenylsulfonyl)pyrrolidin-2-yl)methoxy)-N-(4-(phenyl(pyrrolidin-1-yl)methyl)cyclohexyl)acetamide] | 68% |  |  | 75% | 105%
9 | O=C(COCC1CCCN(S(=O)(=O)c2c(Cl)cc(Cl)cc2Cl)C1)NC1CCC(C(c2ccccc2)N2CCCC2)CC1 (stereo not drawn) [Example 633, N-(4-(phenyl(pyrrolidin-1-yl)methyl)cyclohexyl)-2-((1-(2,4,6-trichlorophenylsulfonyl)piperidin-3-yl)methoxy)acetamide] | 91% |  |  | 63% | 55%
10 | CN(CCOCC(=O)NC1CCC(C(c2ccccc2)N2CCCC2)CC1)S(=O)(=O)c1c(Cl)cccc1Cl (stereo not drawn) [Example 634, 2-(2-(2,6-dichloro-N-methylphenylsulfonamido)ethoxy)-N-(4-(phenyl(pyrrolidin-1-yl)methyl)cyclohexyl)acetamide] | 68% |  |  | 38% | 92%
